Columns and labels:
Type in all cases: in vitro ADME
CYP 3A4 = CYP 3A4 (Homo sapiens, UniProt P08684); assay: CYP inhibition 3A4
Description: Table 1 Pharmacology and In Vitro DMPK Profiles of M1 PAMs 1, 3, and 5 | column: 1; 3; 5

[1] = Predicted hepatic clearance, hepatic microsomes (dog)
Description: After a 5 min preincubation, the reaction was initiated by the addition of NADPH (1 mM). At selected time intervals (0, 3, 7, 15, 25, and 45 min), aliquots were taken and subsequently placed into a 96-well plate containing cold acetonitrile with internal standard (50 ng/mL carbamazepine). Plates were then centrifuged at 3000 rcf (4 °C) for 10 min, and the supernatant was transferred to a separate 96-well plate and diluted 1:1 with water for LC/MS/MS analysis. The in vitro half-life ( 1/2, min, Eq. 1), intrinsic clearance (CLint, mL/min/kg, Eq. 2), and subsequent predicted hepatic clearance (CLhep, mL/min/kg, Eq. 3) was determined employing the […]
where k represents the slope from linear regression analysis of the natural log percent remaining of a test compound as a function of incubation time […]
(2) CLint = in vitroT1/2 x mg microsomes x gram liver x kg body wt ascale-up factors: of 20 (human) or 45 (rat) […]
where Qh (hepatic blood flow, mL/min/kg) is 21 (human) or 70 (rat).
LC/MS/MS Bioanalysis of Samples from Plasma Protein Binding and Intrinsic Clearance […]
Samples were analyzed on a Thermo Electron TSQ Quantum Ultra triple quad mass spectrometer (San Jose, CA) via electrospray ionization (ESI) with two Themo Electron Accella pumps (San Jose, CA), and a Leap Technologies CTC PAL autosampler (Carrboro, NC). Analytes were separated by gradient elution on a dual column system with two Thermo Hypersil Gold (2.1 x 30 mm, 1.9 µm) columns (San Jose, CA) thermostated at 40 °C. HPLC mobile phase A was 0.1% formic acid in water and mobile phase B was 0.1% formic acid in acetonitrile. The gradient started […]
for 0.2 min; returned to 10% B in 0.1 min. The total run time was 1.3 min and the HPLC flow rate was 0.8 mL/min. While pump 1 ran the gradient method, pump 2 equilibrated the alternate column isocratically at 10% B. Compound optimization, data collection, and processing was performed using Thermo Electron's QuickQuan software (v2.3) and Xcalibur (v2.0.7 SP1).
In vivo DMPK experimental:
Determination of brain to plasma ratio: […]

[2] = Plasma protein binding, equilibrium dialysis (dog); conditions: pH 7.4, read-out: fu,plasma
Description: page 5: Drug Metabolism Methods: In vitro Plasma protein binding and Brain homogenate binding: Determination of fraction unbound (f u) in plasma was conducted in vitro via equilibrium dialysis using HTDialysis (HTD) membrane plates. The top half of the plate was filled with 100 uL of Dubelco’s Phosphate Buffered Saline, pH 7.4 (DPBS). Compounds were diluted into plasma from each species (5 µM final concentration), which was aliquoted in triplicate to the ‘bottom half’ of the prepared HTD plate wells. The HTD plate was sealed and incubated for 6 hours at 37 °C. Following incubation, each well (both top and bottom halves) were transferred (20 µL) to the corresponding wells of a 96- shallow-well (V-bottom) plate. The daughter plates were then matrix-matched (DPBS side wells received equal volume of plasma, and plasma side wells received equal volume of DPBS), and extraction solution (120 µL; acetonitrile containing 50 nM carbamazepine as IS) was added to all wells of both daughter plates to precipitate protein and extract test article. The plates were then sealed and centrifuged (3500 rcf) for 10 minutes at ambient temperature. Supernatant (60 µL) from each well of the daughter plates was then transferred to the corresponding wells of new daughter plates (96-shallow-well, V bottom) containing water (Milli-Q, 60 µL/well), and the plates were sealed in preparation for LC-MS/MS analysis (see LC-MS/MS analysis method below). The unbound fraction (f u) was calculated following the equation below, and mean values for each species were calculated from 3 replicates. […] Fraction unbound for both plasma and brain samples was determined using Equation 4. f = Concbuffer u Concplasma Equation 4 Determination of fraction unbound in plasma. […]

CYP 3A4, sequence (P08684 whole entry): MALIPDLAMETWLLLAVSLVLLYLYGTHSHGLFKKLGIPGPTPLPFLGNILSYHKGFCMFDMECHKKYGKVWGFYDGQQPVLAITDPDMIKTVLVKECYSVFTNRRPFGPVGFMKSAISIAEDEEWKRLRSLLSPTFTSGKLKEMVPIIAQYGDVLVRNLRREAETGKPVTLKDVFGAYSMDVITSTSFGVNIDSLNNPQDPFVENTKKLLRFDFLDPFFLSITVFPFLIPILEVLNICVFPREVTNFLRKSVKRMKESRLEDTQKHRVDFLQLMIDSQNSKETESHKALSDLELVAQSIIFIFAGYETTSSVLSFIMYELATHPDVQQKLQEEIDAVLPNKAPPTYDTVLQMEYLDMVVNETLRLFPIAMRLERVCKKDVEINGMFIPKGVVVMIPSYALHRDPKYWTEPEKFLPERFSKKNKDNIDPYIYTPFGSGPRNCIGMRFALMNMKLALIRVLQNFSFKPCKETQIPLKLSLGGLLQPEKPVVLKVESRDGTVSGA

| SMILES | IC50 (CYP 3A4) [µM] | Predicted CLhep [1] [mL/min/kg] | fraction unbound at 6 h, 5 µM [2] |
| --- | --- | --- | --- |
| [2H]C1([2H])c2ncccc2C(=O)N1Cc1c(F)cc(-c2cccc3nn(C)cc23)cc1F [compound 3] | > 30 | 14.4 | 0.082 |
| [2H]C1([2H])c2ncccc2C(=O)N1Cc1c(F)cc(-c2cccc3nn(C([2H])([2H])[2H])cc23)cc1F [compound 5] | 28.6 | 8.8 | 0.119 |
| Cn1cc2c(-c3cc(F)c(CN4Cc5ncccc5C4=O)c(F)c3)cccc2n1 [compound 1] | > 30 | 5.5 | 0.076 |

Reference: paper PMC12006963, “Application of Deuterium in an M1 Positive Allosteric Modulator Back-Up Program: The Discovery of VU6045422” (ACS Chemical Neuroscience, 2025)
